Assay: Ocular iontophoretic delivery of MPA in rabbits; amounts in eye tissues by HPLC
Type: in vivo, New Zealand white rabbits
Conditions: rabbit eye; iontophoresis 3 mA for 20 minutes, 20 μL of 0.6 M MPA in 1% agarose gel, 0.07 cm^2; 15 minutes after delivery
Method: Three New Zealand white rabbits were each fitted with ocular iontophoretic device on one eye. Each device contained 20 μL of 0.6 M mycophenolic acid (MPA) in 1% agarose gel. A vacuum was provided between the eyes of the rabbits and the ocular iontophoretic device by withdrawing 0.2 cc from the space therebetween. MPA was iontophoretically delivered from the cathodes of the devices on the conjunctiva/sclera near the limbus and the upper eyelid using constant current control from standard iontophoretic dose controller. The MPA was iontophoretically delivered through a surface area of 0.07 cm^2 at 3 mA for 20 minutes. The anode electrode was attached on the rabbit's ear, opposite the treatment eye. Rabbits were euthanized at 15 minutes following completion of the iontophoretic delivery. Treatment eyes were dissected and the amounts of MPA in the conjunctiva, sclera, retina, and vitreous were determined using HPLC assay.

MPA Amount, Conjunctiva: 30.45 µg
MPA Amount, Retina: 1.60 µg
MPA Amount, Sclera: 20.65 µg
MPA Amount, Total (combined total for all of the dissections): 60.75 µg
MPA Amount, Vitreous: 2.45 µg
Compound: COc1c(C)c2c(c(O)c1C/C=C(\C)CCC(=O)O)C(=O)OC2 [MPA, mycophenolic acid]

Source: patent US20070082841A1, “Ocular administration of immunosuppressive agents” (Aciont, Inc., priority 2005, published 2007)
